Results reported in patent US20240390298A1, “CYCLOHEXYL BETA-HYDROXY ALKYL AMINES AND MEDICAL USES THEREOF” (ATROGI AB, priority 2021, published 2024).
Where a name gives a salt, the structure may show the parent alone.

Tests used:
Assay type in all cases: cell-based
L6-myotubes [1] = assay: Glucose uptake in differentiated L6-myotubes (3H-2-deoxyglucose), compared to isoproterenol; conditions: agonist 1×10^−5 M, 50 nM 3H-2-deoxyglucose
Outline: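 Serum-starved differentiated L6 myotubes stimulated with agonist at 1×10^−5 M for 1 h 40 min, re-dosed in glucose-free medium for 20 min, then given 50 nM ^3H-2-deoxyglucose for 10 min. Uptake read by β-counting of NaOH lysates; activity expressed relative to isoproterenol.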

L6-myotubes [2] = assay: Glucose uptake in L6-myotubes in the presence of the β2-antagonist ICI-118,551; conditions: differentiated L6-myotubes; compound 1×10^−5 M; ICI-118,551 1×10^−5 M
Method: L6-myoblasts were grown in Dulbecco's Modified Eagle's Medium (DMEM) containing 1 g/L glucose supplemented with 10% fetal bovine serum, 2 mM L-Glutamine, 50 U/mL penicillin, 50 μg/mL streptomycin and 10 mM HEPES. Cells were plated at 1×10^5 cells per mL in 24-well plates. After reaching 90% confluence the cells were grown in medium containing 2% FBS for 7 days where upon cells differentiated into myotubes.
Differentiated L6-myotubes were serum-starved overnight in medium containing 0.5% fatty-acid free BSA and were incubated with the β2-adrenergic receptor antagonist ICI-118,551 at a final concentration of 1×10^−5 M for 30 min. The cells were stimulated with a compound of the invention, at a final concentration of 1×10^−5 M. After 1 h 40 min the cells were washed twice with warm, glucose free medium or PBS and additional portions of the compound of the invention and the antagonist were added. After 20 min the cells were exposed to 50 nM ^3H-2-deoxyglucose for 10 min before washed with ice cold glucose free medium or PBS three times and lysed with 0.2 M NaOH, 400 μL/well, for 1 h at 60° C. The cell lysate was mixed with 4 mL scintillation buffer (Emulsifier Safe, Perkin Elmer) and the radioactivity was detected in a β-counter (Tri-Carb 4810TR, Perkin Elmer). The activity for each compound is compared to that of isoproterenol.

L6-myotubes [3] = assay: Measurement of intracellular cAMP levels in differentiated L6 cells (alpha screen cAMP kit), compared to isoproterenol; conditions: Rattus norvegicus, L6, 0.25 h, agonist 1×10^−5 M, 15 min, read-out: Biological example 2: intracellular cAMP levels, activity compared to that of isoproterenol
Outline: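 L6 myoblasts were differentiated into myotubes over 7 days in 2% FBS, then serum-starved overnight. Agonist at 1×10^−5 M final was applied for 15 min in HBSS with 1% BSA, 5 mM HEPES and 1 mM IBMX, pH 7.4. After ethanol extraction and lysis, cAMP was quantified by AlphaScreen, with activity expressed relative to isoproterenol.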

| Compound | Biological example 1: glucose uptake, activity compared to that of isoproterenol (L6-myotubes [1]) | Biological example 3: glucose uptake in the presence of the β2-antagonist ICI-118,551, activity compared to that of isoproterenol (L6-myotubes [2]) | Emax at 10 µM (L6-myotubes [3]) |
| --- | --- | --- | --- |
| CC(C)(C[C@H]1CC[C@H](N)CC1)NC[C@H](O)c1cncc(F)c1 [Example 85, (R)-2-((1-((1r,4R)-4-Aminocyclohexyl)-2-methylpropan-2-yl)amino)-1-(5-fluoropyridin-3-yl)ethan-1-ol] | + + + | − (less than 25%) | < 25% |
| COC(=O)[C@H]1CC[C@H](CC(C)(C)NC[C@H](O)c2cccc(F)c2)CC1 [Example 107, Methyl (1R,4r)-4-(2-(((R)-2-(3-Fluorophenyl)-2-hydroxyethyl)amino)-2-methylpropyl)cyclohexane-1-carboxylate] | + + + | − (less than 25%) | < 25% |
| COC(=O)[C@H]1CC[C@@H](CCC(C)(C)NC[C@H](O)c2cncc(F)c2)CC1 [Example 112, Methyl (1S,4s)-4-(3-(((R)-2-(5-fluoropyridin-3-yl)-2-hydroxyethyl)amino)-3-methylbutyl)cyclohexane-1-carboxylate] | + + + | − (less than 25%) | 25 to 50% |
| COC(=O)[C@H]1CC[C@H](CCC(C)(C)NC[C@H](O)c2cncc(F)c2)CC1 [Example 116, Methyl (1R,4r)-4-(3-(((R)-2-(5-fluoropyridin-3-yl)-2-hydroxyethyl)amino)-3-methylbutyl)cyclohexane-1-carboxylate] | + + + | − (less than 25%) | < 25% |
| CC(C)(C[C@H]1CC[C@@H](S(N)(=O)=O)CC1)NC[C@H](O)c1cccc(F)c1.Cl [Example 196, (1S,4s)-4-(2-(((R)-2-(3-Fluorophenyl)-2-hydroxyethyl)amino)-2-methylpropyl)cyclohexane-1-sulfonamide hydrochloride] | + + + | – | < 25% |
| CC(C)(C[C@H]1CC[C@@H](S(N)(=O)=O)CC1)NC[C@H](O)c1cncc(F)c1 [Example 197, (1S,4s)-4-(2-(((R)-2-(5-Fluoropyridin-3-yl)-2-hydroxyethyl)amino)-2-methylpropyl)cyclohexane-1-sulfonamide dihydrochloride] | + + + | – | < 25% |
| CCCS(=O)(=O)N[C@H]1CC[C@@H](CC(C)(C)NC[C@H](O)c2cncc(F)c2)CC1 [Example 198, N-((1S,4s)-4-(2-(((R)-2-(5-Fluoropyridin-3-yl)-2-hydroxyethyl)amino)-2-methylpropyl)cyclohexyl)propane-1-sulfonamide] | + + + | – | < 25% |
| CC(C)(C[C@H]1CC[C@@H](NS(=O)(=O)C(F)(F)F)CC1)NC[C@H](O)c1cncc(F)c1 [Example 199, 1,1,1-Trifluoro-N-((1S,4s)-4-(2-(((R)-2-(5-fluoropyridin-3-yl)-2-hydroxy-ethyl)amino)-2-methylpropyl)cyclohexyl)methanesulfonamide dihydrochloride] | + + + | – | < 25% |
